Test results from patent US20150056205A1, “STEROID SPARING AGENTS AND METHODS OF USING SAME” (BIOGEN IDEC MA INC., priority 2004, published 2015).

Key:
α4 integrin = biological target: T1, α4 integrin (Homo sapiens, UniProt P13612); experiment: single dose pharmacokinetics and α4 integrin receptor saturation in clinical trials; format: in vivo
T1 construct: endogenous in cells; host or cells: circulating leukocytes of healthy volunteers and MS/IBD subjects (in vivo)
Experimental: (§1) The initial dose of natalizumab selected for clinical evaluation was based on non-clinical studies in the guinea pig Experimental Allergic Encephalitis (EAE) model. […] A single dose of 3 mg/kg appeared to provide serum concentrations of natalizumab associated with α4 integrin receptor blockade for up to approximately 3 weeks, and 6 mg/kg for about 6 weeks.
Natalizumab has been evaluated in all clinical trials to date by administration of dose adjusted for bodyweight. […] A single infusion of a higher dose of 6 mg/kg natalizumab produced α4 integrin saturation levels which were slightly higher and more prolonged (approximately 6 weeks).

[1] = test system: adult subjects with Crohn's disease (CD); experiment: maintenance of clinical response and remission in Crohn's Disease, six month regimen (Example 10); format: in vivo, human
Experimental: This experiment was a double-blind, placebo-controlled study of the efficacy, safety, and tolerability of natalizumab in maintaining clinical response and remission in Crohn's Disease.
Natalizumab, a humanized monoclonal IgG4 antibody to α4 integrin, was evaluated in a randomized, controlled study to determine the ability of a six month regimen to maintain clinical response/remission achieved in natalizumab-treated subjects in the […] induction of response/remission study.
Loss of response was defined as a CDAI≧220 and ≧70-point increase from baseline CDAI in the second study or use of rescue intervention. Maintenance of remission was also assessed.

guinea pig EAE = experiment: guinea pig Experimental Allergic Encephalitis (EAE) model; format: in vivo
Experimental: as §1

[2] = test system: subjects with Crohn's disease; experiment: Phase III maintenance of response and remission study in Crohn's disease (Example 9, second study); format: in vivo, human
Experimental: A double-blind, placebo-controlled study of the efficacy, safety, and tolerability of intravenous Tysabri (natalizumab, 300 mg monthly) in maintaining clinical response and remission in patients with Crohn's Disease (CD) was performed. The objectives were to compare the ability of natalizumab versus placebo to maintain a clinical response in subjects with CD, to compare the ability of natalizumab versus placebo to maintain a clinical remission in subjects with CD, to compare the effects of natalizumab versus placebo on quality of life as measured by the Inflammatory Bowel Disease Questionnaire (IBDQ), and to compare the ability of natalizumab versus placebo to allow subjects to achieve withdrawal of oral steroids.
A Phase III, international, multicenter, randomized, double-blind, placebo-controlled, parallel-group study of subjects with previously active Crohn's disease (CD) (defined as moderately to severely active, CDAI≧220, <450) who have responded to treatment at Week 10 and maintained that response out to Week 12 in a first study (defined as a ≧70 point decrease in baseline CDAI) and whose disease is mildly active (defined as a CDAI score of <220) was undertaken.
Within this group there was a sub-population who had achieved remission (defined as a CDAI score of <150) at Week 10 of the first study. […] Subjects receiving concomitant medications for their CD were permitted to enroll providing that doses remained stable throughout their participation in the first study. All concomitant medications for CD remained stable for the duration of the 12-month treatment phase (up to Month 15) with the exception of oral steroids which were reduced according to a fixed algorithm). At the time this application was filed, only 9 months of data was available.
Natalizumab was administered 300 mg monthly for 12 infusions. The placebo was administered monthly for 12 infusions. Subjects were stratified according to their disease status (remission versus no remission, i.e., a CDAI<150 or ≧150), concomitant use of oral steroids and concomitant use of immunosuppressants.
Once randomized, subjects received their first infusion. Thereafter, they returned to the clinic on a monthly basis (where 1 month is defined as a 4-week period) for assessment and infusion. Introduction of any new medication for CD or a dose change to an existing concomitant medication for CD (with the exception of oral steroids withdrawn according to the fixed algorithm) […] unless deemed necessary for purposes of rescue intervention. Once rescued, such a subject was considered a treatment failure.
Eligible subjects at Week 10 in the first study were consented and enrolled into the second study, in order to allow subjects taking concomitant oral steroids to begin a steroid taper. Subjects who continued to meet the eligibility criteria at Week 12/Month 3, i.e., in time for their next, monthly infusion, were re-randomized and entered the treatment phase which will last up to 12 months in duration (i.e., up to Month 15). Subjects were male or female, eighteen years of age or older.
All subjects receiving oral steroids were required to undergo a taper immediately upon entry into the second study using the following algorithm. Subjects on doses equivalent to >10 mg of prednisolone will begin their taper at a rate of 5 mg every 7 days until they reach a dose of 10 mg. Subjects on doses equivalent to 10 mg of prednisolone were tapered at a rate of 2.5 mg every 7 days until they are completely withdrawn. Subjects taking budesonide were tapered at a rate of 3 mg every 3 weeks.
The ability of natalizumab to maintain mildly active disease (defined as a CDAI score of <220 and no use of rescue intervention) and remission (defined as a CDAI score of <150 and no use of rescue intervention) in subjects with CD was assessed. […]

[3] = test system: subjects diagnosed with chronic active Crohn's disease; experiment: placebo-controlled single infusion study in chronic active Crohn's disease; format: in vivo
Experimental: Earlier studies in Crohn's disease and ulcerative colitis are summarized below. One study was a randomized, double-blind, placebo-controlled, safety, tolerability, and efficacy study of a single infusion of intravenous 3 mg/kg natalizumab in male and female subjects diagnosed with chronic active Crohn's disease. Thirty subjects were enrolled; 18 were treated with natalizumab (3 mg/kg) and 12 with placebo.

[4] = test system: subjects with active ulcerative colitis; experiment: open-label single infusion study in active ulcerative colitis; format: in vivo; conditions: for mean PTAI score: 9.7 at Week 0
Experimental: Another earlier study was an open-label safety, tolerability, and efficacy study of a single infusion of 3 mg/kg intravenous natalizumab in male and female subjects with active ulcerative colitis.

primates = conditions: in vivo
Text: The inflammation was characterized by increased numbers of lymphocytes and plasma cells within the lamina propia with occasional crypt abscesses.

## natalizumab
α4 integrin; 3 mg/kg infusion
  time serum concentrations, receptor saturation and inhibition of cell adhesion are maintained: 3-4 weeks
α4 integrin; 3 mg/kg infusion, healthy volunteers, subjects with MS and IBD
  natalizumab serum concentrations maintained: 2.5 to 3.0 µg/mL
α4 integrin; human, in vivo
  clearance, dependence on bodyweight: largely independent of bodyweight
α4 integrin; single dose of 3 mg/kg
  duration of serum concentrations associated with α4 integrin receptor blockade: approximately 3 weeks
α4 integrin; single dose of 6 mg/kg
  duration of serum concentrations associated with α4 integrin receptor blockade: about 6 weeks
α4 integrin; single infusion of 6 mg/kg
  duration of α4 integrin saturation: approximately 6 weeks
[1]; 300 mg monthly, placebo 25%
  subjects taking steroids in the first study who were withdrawn from steroids: 55%
[1]; at 6 months, 300 mg monthly, placebo 26%
  subjects who maintained clinical remission: 44%
[1]; at 6 months, ITT population, 300 mg monthly, placebo 29%
  subjects continuing to meet the criteria for clinical response: 61%
[1]; monthly administration for 6 months
  tolerability: well tolerated
[1]; versus placebo
  rates of serious and non-serious adverse events between treatment groups: No notable difference
Guinea pig EAE; dose of 3 mg/kg
  signs and symptoms of EAE: significant delay in onset and a reversal of the signs and symptoms of EAE
Guinea pig EAE; lower doses than 3 mg/kg
  signs and symptoms of EAE: not effective
[2]; after 9 months, natalizumab remission population at three months, placebo 25.8%
  patients of the remission population who maintained a response (remission): 43.8%
[2]; after 9 months, natalizumab responder population at three months, placebo 28.8%
  patients who maintained a response: 61.3%
[2]; month 9, of those who took steroids at first study baseline, 300 mg monthly, placebo 17 (22%)
  Remission and not taking steroids, number (%) of subjects: 31 (46%)
[2]; month 9, of those who took steroids at first study baseline, 300 mg monthly, placebo 19 (25%)
  Not taking steroids, number (%) of subjects: 37 (55%)
[2]; placebo 8%
  serious adverse events (SAEs): 7%
[2]; second study
  tapering off steroids: enabled subjects to be successfully tapered off steroids
[3]; 2 and 4 weeks post-treatment, single 3 mg/kg
  mean CDAI scores compared to mean baseline: significantly decreased
[3]; Week 2 post-treatment, single 3 mg/kg, placebo 33%
  subjects requiring rescue therapy: 11%
[3]; single 3 mg/kg
  subjects withdrawn because of an adverse event: No subjects
[3]; single 3 mg/kg, 18 treated
  subjects reporting one serious adverse event: Six
[3]; single intravenous dose of 3 mg/kg, subjects with CD
  safety and tolerability: safe and well tolerated
[3]; two weeks after single 3 mg/kg intravenous infusion, placebo 8%
  subjects in clinical remission (CDAI<150): 39%
[4]; 1 week post-treatment
  mean PTAI score: 6.9
[4]; 2 and 4 weeks after single 3 mg/kg infusion, ten subjects
  subjects with good clinical response (PTAI score ≦5): 50%
[4]; 2 weeks post-treatment
  mean PTAI score: 5.7
[4]; 4 weeks post-treatment
  mean PTAI score: 4.9
[4]; between Weeks 0 and 4
  subjects who received no rescue medication: Seventy percent
[4]; of the 30 adverse events reported
  adverse events considered related to study drug: 3
[4]; ten subjects, single 3 mg/kg
  subjects reporting a serious adverse event: Three
primates
  treated animals with minimal to mild lymphoplasmacytic inflammation of the mucosa of the cecum, colon, and/or rectum: about half
